From US20160102093A1, “CO-PROCESSING METHOD AND FORMULATION FOR HIV ATTACHMENT INHIBITOR PRODRUG COMPOUND AND EXCIPIENTS” (BRISTOL-MYERS SQUIBB COMPANY, priority 2011, published 2016)

How the values were obtained:
Assay type in all cases: physicochemical
Conditions in all cases: unprocessed API vs. co-processed prodrug/HPMC batches from Example 1
Bulk density of powder = test: Bulk density of powder
Tapped density of powder = test: Tapped density of powder
Powder flow = test: Powder flow

- Bulk Density (Bulk density of powder): 0.13 g/cc
- Tapped Density (Tapped density of powder): 0.23 g/cc
- Flow (Powder flow): incomplete
- Volumetric Flow (Powder flow): incomplete
Structure (SMILES): COc1cnc(-n2cnc(C)n2)c2c1c(C(=O)C(=O)N1CCN(C(=O)c3ccccc3)CC1)cn2COP(=O)(O)O [API, 1-benzoyl-4-[2-[4-methoxy-7-(3-methyl-1H-1,2,4-triazol-1-yl)-1-[(phosphonooxy)methyl]-1H-pyrrolo[2,3-c]pyridin-3-yl]-1,2-dioxoethyl]-piperazine]
